Read-outs that look alike come from different tables or passages of the source.
Tests used:
Type in all cases: binding
[1] = target: T1, Q86VP6 (Homo sapiens, UniProt Q86VP6); assay: Competitive cysteine profiling, probe competition (Table 2B)
T1 construct: 200 μL of lysate containing 5 mg/ml proteome was treated with 2 μL of 100× compound stock; endogenous in cells
T1 sequence (Q86VP6 1-1230): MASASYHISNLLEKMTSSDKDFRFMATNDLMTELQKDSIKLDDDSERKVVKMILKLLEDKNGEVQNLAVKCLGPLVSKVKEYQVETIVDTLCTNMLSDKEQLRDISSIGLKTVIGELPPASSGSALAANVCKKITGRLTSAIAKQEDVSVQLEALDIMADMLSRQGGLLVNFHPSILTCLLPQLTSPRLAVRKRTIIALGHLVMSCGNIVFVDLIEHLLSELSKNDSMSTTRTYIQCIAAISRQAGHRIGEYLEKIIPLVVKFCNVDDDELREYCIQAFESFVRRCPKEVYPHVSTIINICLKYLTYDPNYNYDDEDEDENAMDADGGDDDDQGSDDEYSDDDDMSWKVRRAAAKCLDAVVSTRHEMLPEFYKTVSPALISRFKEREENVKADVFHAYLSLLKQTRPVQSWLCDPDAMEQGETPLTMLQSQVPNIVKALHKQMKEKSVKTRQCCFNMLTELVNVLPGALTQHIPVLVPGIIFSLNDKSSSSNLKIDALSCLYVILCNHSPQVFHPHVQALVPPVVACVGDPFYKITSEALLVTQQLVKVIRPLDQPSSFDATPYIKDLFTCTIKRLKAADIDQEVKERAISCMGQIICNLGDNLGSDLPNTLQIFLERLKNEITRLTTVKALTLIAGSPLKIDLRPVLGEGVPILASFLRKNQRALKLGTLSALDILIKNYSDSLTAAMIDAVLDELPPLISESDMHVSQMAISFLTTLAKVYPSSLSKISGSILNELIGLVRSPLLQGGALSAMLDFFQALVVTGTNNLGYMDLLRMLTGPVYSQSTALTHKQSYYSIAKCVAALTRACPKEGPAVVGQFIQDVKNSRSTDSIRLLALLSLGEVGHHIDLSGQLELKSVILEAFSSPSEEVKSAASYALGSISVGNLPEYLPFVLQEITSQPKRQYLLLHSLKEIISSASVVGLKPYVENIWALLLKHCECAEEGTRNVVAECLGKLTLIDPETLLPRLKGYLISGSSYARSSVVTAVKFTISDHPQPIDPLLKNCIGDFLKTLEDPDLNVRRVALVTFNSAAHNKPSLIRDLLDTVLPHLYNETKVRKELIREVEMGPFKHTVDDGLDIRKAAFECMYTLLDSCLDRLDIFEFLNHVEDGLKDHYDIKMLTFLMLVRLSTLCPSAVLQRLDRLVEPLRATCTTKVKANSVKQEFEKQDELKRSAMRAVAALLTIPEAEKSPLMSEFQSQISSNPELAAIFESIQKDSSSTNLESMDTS
Source text: (§1) The following 96-well sample prep protocol was used for sample preparation.

[2] = target: T2, O95376 (Homo sapiens, UniProt O95376); assay: as above; settings: 500 uM
T2 construct: Cells were resuspended in cold PBS on ice and sonicated with a probe sonicator to achieve lysis; endogenous in cells
T2 sequence (O95376 1-493): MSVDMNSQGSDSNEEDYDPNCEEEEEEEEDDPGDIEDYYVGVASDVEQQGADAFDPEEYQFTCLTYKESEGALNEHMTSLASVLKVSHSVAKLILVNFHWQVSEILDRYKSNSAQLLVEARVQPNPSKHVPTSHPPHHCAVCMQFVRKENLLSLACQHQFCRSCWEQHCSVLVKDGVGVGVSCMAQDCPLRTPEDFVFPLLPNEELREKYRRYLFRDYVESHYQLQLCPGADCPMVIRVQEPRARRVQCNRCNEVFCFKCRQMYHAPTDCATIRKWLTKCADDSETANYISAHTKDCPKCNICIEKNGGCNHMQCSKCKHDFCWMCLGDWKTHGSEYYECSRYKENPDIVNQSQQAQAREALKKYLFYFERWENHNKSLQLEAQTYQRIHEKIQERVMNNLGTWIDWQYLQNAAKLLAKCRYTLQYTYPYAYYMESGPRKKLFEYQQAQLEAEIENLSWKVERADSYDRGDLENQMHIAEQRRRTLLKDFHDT
Source text: as §1

[3] = target: T3, UniProt Q6PJ21 (Homo sapiens, UniProt Q6PJ21); assay: Cysteine liganding, probe competition; settings: for inhibition at 100 µM / inhibition at 500 µM: read-out: percent_inhibition
T3 construct: 200 μL of lysate containing 5 mg/ml proteome was treated with 2 μL of 100× compound stock; endogenous in cells
T3 sequence (Q6PJ21 1-355): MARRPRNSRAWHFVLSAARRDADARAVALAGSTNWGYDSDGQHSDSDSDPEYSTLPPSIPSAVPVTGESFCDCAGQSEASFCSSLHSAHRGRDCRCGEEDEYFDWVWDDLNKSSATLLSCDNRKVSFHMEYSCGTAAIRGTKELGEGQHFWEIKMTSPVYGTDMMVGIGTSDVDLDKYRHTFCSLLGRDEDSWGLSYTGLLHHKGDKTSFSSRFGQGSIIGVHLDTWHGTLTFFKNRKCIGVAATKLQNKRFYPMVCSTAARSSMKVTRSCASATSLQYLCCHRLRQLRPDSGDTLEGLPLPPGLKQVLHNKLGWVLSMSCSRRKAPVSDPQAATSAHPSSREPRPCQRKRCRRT
Source text: as §1

[4] = target: T4, UniProt A0AVI4 (Homo sapiens, UniProt A0AVI4); assay: Cysteine liganding, probe competition
T4 construct: 200 μL of lysate containing 5 mg/ml proteome was treated with 2 μL of 100× compound stock; endogenous in cells
T4 sequence (A0AVI4 1-362): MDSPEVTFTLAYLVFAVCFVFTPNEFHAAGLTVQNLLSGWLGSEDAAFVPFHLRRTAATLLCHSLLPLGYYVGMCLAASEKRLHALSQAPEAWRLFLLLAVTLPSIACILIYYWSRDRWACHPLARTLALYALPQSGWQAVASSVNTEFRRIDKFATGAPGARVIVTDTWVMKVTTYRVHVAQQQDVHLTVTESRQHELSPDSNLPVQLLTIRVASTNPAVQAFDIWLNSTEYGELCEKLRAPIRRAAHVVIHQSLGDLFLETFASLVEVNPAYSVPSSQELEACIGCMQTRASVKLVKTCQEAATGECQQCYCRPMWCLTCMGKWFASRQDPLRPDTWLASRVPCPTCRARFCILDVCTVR
Source text: as §1

[5] = target: T5, UniProt Q9BUL5 (Homo sapiens, UniProt Q9BUL5); assay: Cysteine liganding, probe competition
T5 construct: 200 μL of lysate containing 5 mg/ml proteome was treated with 2 μL of 100× compound stock; endogenous in cells
T5 sequence (Q9BUL5 whole entry, change not shown): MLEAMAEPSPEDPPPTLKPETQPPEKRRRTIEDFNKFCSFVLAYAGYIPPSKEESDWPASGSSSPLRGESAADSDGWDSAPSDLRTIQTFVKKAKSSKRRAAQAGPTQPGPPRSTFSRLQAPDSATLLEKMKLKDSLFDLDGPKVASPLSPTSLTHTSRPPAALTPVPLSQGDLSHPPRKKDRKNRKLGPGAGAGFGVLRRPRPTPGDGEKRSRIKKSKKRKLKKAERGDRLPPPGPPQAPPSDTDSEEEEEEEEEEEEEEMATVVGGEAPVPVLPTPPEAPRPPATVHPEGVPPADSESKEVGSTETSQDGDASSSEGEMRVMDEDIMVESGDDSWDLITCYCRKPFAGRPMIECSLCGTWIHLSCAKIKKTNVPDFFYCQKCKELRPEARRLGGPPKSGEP
Source text: as §1

KB05_100 uM_percent_inhibition ([1]; 100 uM) [%]	inhibition at 100 µM ([1]; read-out: KB05_100 uM_percent_inhibition) [%]	KB05_500 uM_percent_inhibition [2] [%]	inhibition at 100 µM ([5]; 100 uM, read-out: KB05_100 uM_percent_inhibition) [%]	KB05_500 uM_percent_inhibition ([5]; 500 uM) [%]	inhibition at 500 µM ([5]; 500 uM, read-out: KB05_500 uM_percent_inhibition) [%]	SMILES	inhibition at 100 µM ([3]; 100 uM) [%]	inhibition at 500 µM ([3]; 500 uM) [%]	inhibition at 100 µM ([4]; read-out: percent_inhibition) [%]	KB02_100 uM_percent_inhibition ([1]; 100 uM) [%]	inhibition at 100 µM ([1]; read-out: KB02_100 uM_percent_inhibition) [%]	KB02_500 uM_percent_inhibition [2] [%]	inhibition at 500 µM ([4]; 500 uM, read-out: percent_inhibition) [%]	inhibition at 100 µM ([5]; 100 uM, read-out: KB02_100 uM_percent_inhibition) [%]	KB03_100 uM_percent_inhibition ([1]; 100 uM) [%]	KB03_500 uM_percent_inhibition [2] [%]	percent_inhibition ([3]; 100 uM) [%]	percent_inhibition ([3]; 500 uM) [%]	percent_inhibition ([4]; 500 uM) [%]	KB03_100 uM_percent_inhibition ([5]; 100 uM) [%]
7	4	79	29	30	27	C=CC(=O)N(c1ccccc1)c1ccc(Br)cc1 [KB05]	4	30	15	–	–	–	–	–	–	–	–	–	–	–
–	–	–	–	–	–	COc1ccc2c(c1)CCCN2C(=O)CCl [KB02]	5	8	14	27	47	89	44	13	–	–	–	–	–	–
–	–	–	–	–	–	O=C(CCl)Nc1cc(C(F)(F)F)cc(C(F)(F)F)c1 [KBO3]	–	–	–	–	–	–	–	–	46	100	25	52	58	16

Source: US20200239530A1, “COMPOUNDS AND METHODS OF MODULATING PROTEIN DEGRADATION” (Vividion Therapeutics, Inc., priority 2017, published 2020)
